Measured values as given in patent US20230158048A1, “COMBINATIONS” (Recurium IP Holdings, LLC, priority 2020, published 2023).

Assays:
MCF-7 cells = test: Xenograft Tumor Model, MCF-7 (ER+ Breast cancer) mouse model; format: in vivo; details: MCF-7 xenograft mice, 50 mg/kg p.o.
Method: Mice were inoculated with MCF-7 cells subcutaneously on the 2nd right mammary fat pad with the single cell suspension of 95% viable tumor cells (1×10^7) in 100 μL DMEM Matrigel mixture (1:1 ratio) without serum for the tumor development. The treatment was started when the mean tumor size reached approximately 226 mm^3, with individual tumor size ranging from 185-245 mm^3. Animals were randomly distributed into treatment groups of 10 animals each and dosed with vehicle and indicated compounds at indicated dosage and frequency provided in FIG. 4 and Table 3. In FIG. 4, the bottom line with star is Compound 5A (200 mg/kg p.o. qd×24)+Palbociclib (50 mg/kg p.o. pd×24). Tumor volumes were evaluated twice per week to calculate tumor volume over time, and mice were weighed twice per week as a surrogate for signs of toxicity. Tumor growth inhibition (TGI) was calculated using the following equation TGI=(1−(Td−T0)/(Cd−C0))×100%. Td and Cd are the mean tumor volumes of the treated and control animals, and TO and C0 are the mean tumor volumes of the treated and control animals at the start of the experiment. The tumor regression was defined as individual tumor volume (TV) decrease (terminal TV compared to initial TV). The percent tumor regression was calculated using the formula: (1−(Td/T0))×100%.

ZR-75-1 cells = test: CTG Assay (CellTiter-Glo Luminescent Cell Viability Assay), cell proliferation; format: cell-based; details: Homo sapiens, 160 nM, 72 h
Method: Cell proliferation was measured using the CellTiter-Glo® Luminescent Cell Viability Assay. The assay involved the addition of a single reagent (CellTiter-Glo® Reagent) directly to cells cultured in serum-supplemented medium. ZR-75-1 (ATCC® CRL-1500) cells were cultured according to ATCC recommendations and were seeded at 10,000 cells per well.
Compound 5A and Palbociclib were prepared as a DMSO stock solution (10 mM). Plates were incubated at 37° C., 5% CO2 for 72 h and then equilibrated at room temperature for approximately 30 min. An equal-volume amount of CellTiter-Glo® Reagent (100 μL) was added to each well. Plates were mixed for 2 min on an orbital shaker to induce cell lysis and then incubated at RT for 10 min to stabilize the luminescent signal. Luminescence (RLU (relative light unit)) was recorded using a SpectraMAX, M5e plate reader according to CellTiter-Glo protocol. Percent inhibition was calculated using the following formula: % inhibition=(RLU*100/(RLU of the cell background)). IC50 of each compound was calculated using GraphPad Prism by nonlinear regression analysis.

`CC(=O)c1c(C)c2cnc(Nc3ccc(N4CCNCC4)cn3)nc2n(C2CCCC2)c1=O` [Palbociclib] was tested, and the “TUMOR REGRESSION % (DAY 23)” value (MCF-7 cells) was 0% and the inhibition at 0.16 µM (ZR-75-1 cells) was 20%.
